The source of these data is article PMC13494812, “Towards the Targeted Protein Degradation of PRMT1” (Chemmedchem, 2024).

pIC50: −log10 of the molar value. A value given as a limit tells only on which side of the number the result lay.

One data set has as its target T1, CRBN (Homo sapiens, UniProt Q96SW2).
T1 construct: host or cells: MCF-7
Description: CRBN binding of N-alkylated molecule 7 (Figure S6). An excerpt:
To synthesise PROTACs that recruit the CRBN E3‐ligase, PRMT1 ligand 4 underwent a Mitsunobu reaction to produce 5 which was then used for the alkylation of CRBN ligand 6.

In another data set the test system is MCF-7 cell line. Briefly: Cytotoxicity seen in the MCF-7 degradation experiment. Format: cell-based, human. The conditions noted are these: MCF-7 cells, 10 μM, 24 h.
The test system of the next data set is KP-3 line. Briefly: Cytotoxicity seen in the KP-3 degradation experiment. It is filed as cell-based, human. As to conditions: KP-3 cells, 10 μM, 24 h. The procedure: Figure S5. VHL-recruiting PROTACs in two PDAC-derived cell lines. Western blot of PROTAC A-F in two PDAC-derived cell lines at 10 µM. HPAF-II and KP-3 cells were treated with the indicated compounds at 10 µM for 24 h and then harvested for analysis by Western blot. PROTAC E and PROTAC F were cytotoxic in the KP-3 line.
(1 picture or pasted object on this page, not shown here)

The target in another data set is T2, NLuc-CRBN fusion protein (Homo sapiens, UniProt Q96SW2).
T2 construct: host or cells: MCF-7
Description: CRBN NanoBRET Target Engagement assay in live MCF-7 cells. It is filed as cell-based. The conditions noted are these: 0.5 µM tracer, 2 h, read-out: IC50, half-maximal inhibition of tracer binding to NLuc-CRBN.

Data set [1] is described as follows: PROTAC stability in cell culture media. It is filed as in vitro ADME. As to conditions: read-out: t1/2 in cell culture media (converted). From the text:
A SEM protecting group was employed on the glutarimide ring of CRBN ligand 6. Three CRBN‐recruiting PROTACs were synthesised by the O‐alkylation of PRMT1 ligand 4 with the corresponding linker 8 j–l to give 9 j–l which underwent a subsequent O‐alkylation with SEM‐protected CRBN ligand 12. The removal of the protecting groups was then attempted using acidic conditions. The N‐Boc and THP protecting groups on the PRMT1 ligand were removed however the SEM group on the CRBN ligand was converted to an N‐hydroxymethyl functional group. This group was removed under basic conditions to afford PROTACs J–L (Scheme 3 A). It is documented that the glutarimide ring and the phthalimide group of the CRBN ligand are susceptible to hydrolysis,[50, 51] and the stability of PROTAC L in cell culture media was investigated and found to be short (t1/2=0.9 h). Changing the functional group between the CRBN ligand and linker can affect the susceptibility of the ligand to hydrolysis.[52] PROTAC M was synthesised, which comprised a similar structure as PROTAC L, but with an amino group between the linker and CRBN ligand (Scheme 3 B).

The target in data set [2] is T3, PRMT1 (Homo sapiens, UniProt Q99873).
T3 construct: endogenous in cells; host or cells: MCF-7
Description: ADMA and MMA levels by Western blot in MCF-7 cells (PRMT1 / Type I PRMT inhibition). Format: cell-based. As to conditions: 10 μM, 24 h; for change in monomethylation of arginine (MMA): Western blot. An excerpt: The cells were allowed to adhere overnight.
manufacturer’s instructions.
(Immunoblotting shows a protein as a band on a membrane.)

The target of data set [3] is T3, PRMT1. Description: PRMT1 degradation assay by Western blot in MCF-7 cells. Format: cell-based. As to conditions: 1 and 0.1 μM, 24 h. From the text:
A sensitive and selective Western blot protocol was validated to investigate the effect of PROTAC treatment on the cellular levels of PRMT1 in the MCF‐7 cell line (Figure S4, ESI†). Derived from a metastatic breast adenocarcinoma, the MCF‐7 cell line has the hormone receptor status that characterises the most frequently diagnosed subtype of breast cancer: ER‐positive, PR‐positive, HER2‐negative.[43, 44] This breast cancer subtype, and consequently the MCF‐7 cell line, are a suitable model system to predict the clinical efficacy of PRMT1 PROTACs; PRMT1 upregulation correlates with a reduction in relapse‐free survival for patients with this breast cancer subtype[6, 45] and anti‐proliferative effects have been observed in the MCF‐7 cell line following pan‐Type I PRMT inhibition.[17, 20]
Figure 3 PRMT1 and PRMT6 degradation assays with VHL‐recruiting PROTACs. […] PROTACs E–F were cytotoxic and not analysed. […]
(§1) Western Blot Cells were counted using the Vi-CELL XR cell viability analyser, as per manufactures instructions, and the desired number of cells seeded in full media in individual 10 cm plates (Corning, #430167). […]
(§2) The pellet was resuspended in RIPA buffer containing protease and phosphatase inhibitor and incubated at 4 °C for 10 minutes with rotation. […] The supernatant was transferred and the protein concentration quantified by the Direct Detect Spectrometer as per manufacturer’s instructions. […]

The target of the next data set is T4, PRMT6 (Homo sapiens, UniProt Q96LA8).
T4 construct: endogenous in cells; host or cells: MCF-7
Briefly: PRMT6 degradation assay by Western blot in MCF-7 cells. It is filed as cell-based. The conditions noted are these: 1 and 0.1 μM, 24 h. The method, then: At 10 μM in the MCF‐7 cell line, PRMT1 degradation was not observed with any of the synthesised PROTACs (Figure 3A). PROTAC E and PROTAC F were cytotoxic and not analysed. […]. PRMT8 is expressed primarily in the brain and thus not investigated.[46]
Figure 3 PRMT1 and PRMT6 degradation assays with VHL‐recruiting PROTACs. A) PROTACs A–I at 10 μM. PROTACs E–F were cytotoxic and not analysed. MCF‐7 cells were treated with the indicated compound for 24 h and then harvested for analysis by Western blot. B) Same as A but PROTACs tested at 1 and 0.1 μM. Image representative of two independent experiments. Uncropped blots are shown in ESI†.
Figure 5 PRMT1 and PRMT6 degradation assays with CRBN‐recruiting PROTACs. A) PROTACs J–O at 10 μM. MCF‐7 cells were treated with the indicated compound for 24 h and then harvested for analysis by Western blot. B) Same as A but PROTAC N tested at 1 and 0.1 μM. […]
as §1, §2

T2 sequence (Q16531 whole entry, the tested form may be a part): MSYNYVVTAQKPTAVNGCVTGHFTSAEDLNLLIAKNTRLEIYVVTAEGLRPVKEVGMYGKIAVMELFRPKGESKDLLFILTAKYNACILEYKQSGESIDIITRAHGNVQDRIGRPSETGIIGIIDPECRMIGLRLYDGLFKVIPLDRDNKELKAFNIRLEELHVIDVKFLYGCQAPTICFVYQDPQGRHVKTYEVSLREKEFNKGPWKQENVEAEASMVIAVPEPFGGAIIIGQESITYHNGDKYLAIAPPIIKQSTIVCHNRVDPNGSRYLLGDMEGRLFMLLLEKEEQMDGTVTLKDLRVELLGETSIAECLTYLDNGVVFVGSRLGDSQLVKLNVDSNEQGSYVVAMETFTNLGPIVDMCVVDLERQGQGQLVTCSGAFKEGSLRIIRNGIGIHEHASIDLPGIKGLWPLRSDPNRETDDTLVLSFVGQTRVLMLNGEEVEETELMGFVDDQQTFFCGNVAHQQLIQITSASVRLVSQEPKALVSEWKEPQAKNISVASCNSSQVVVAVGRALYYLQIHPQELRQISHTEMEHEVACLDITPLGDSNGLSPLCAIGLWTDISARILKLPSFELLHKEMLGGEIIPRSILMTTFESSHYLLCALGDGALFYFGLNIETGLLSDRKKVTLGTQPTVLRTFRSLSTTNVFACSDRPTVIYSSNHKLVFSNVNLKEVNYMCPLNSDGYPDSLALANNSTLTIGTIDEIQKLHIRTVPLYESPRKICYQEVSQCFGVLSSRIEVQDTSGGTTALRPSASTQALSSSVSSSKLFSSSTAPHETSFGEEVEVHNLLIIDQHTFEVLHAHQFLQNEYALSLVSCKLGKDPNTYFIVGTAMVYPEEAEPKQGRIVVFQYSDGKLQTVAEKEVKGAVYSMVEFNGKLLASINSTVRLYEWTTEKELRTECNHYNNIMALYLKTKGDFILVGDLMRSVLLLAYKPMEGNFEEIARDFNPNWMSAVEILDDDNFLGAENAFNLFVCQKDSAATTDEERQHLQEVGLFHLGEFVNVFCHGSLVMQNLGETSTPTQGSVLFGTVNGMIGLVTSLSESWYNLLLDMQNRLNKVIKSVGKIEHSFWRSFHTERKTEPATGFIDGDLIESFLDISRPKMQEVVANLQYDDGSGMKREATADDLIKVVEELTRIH
T2 sequence (Q96SW2 whole entry, the tested form may be a part): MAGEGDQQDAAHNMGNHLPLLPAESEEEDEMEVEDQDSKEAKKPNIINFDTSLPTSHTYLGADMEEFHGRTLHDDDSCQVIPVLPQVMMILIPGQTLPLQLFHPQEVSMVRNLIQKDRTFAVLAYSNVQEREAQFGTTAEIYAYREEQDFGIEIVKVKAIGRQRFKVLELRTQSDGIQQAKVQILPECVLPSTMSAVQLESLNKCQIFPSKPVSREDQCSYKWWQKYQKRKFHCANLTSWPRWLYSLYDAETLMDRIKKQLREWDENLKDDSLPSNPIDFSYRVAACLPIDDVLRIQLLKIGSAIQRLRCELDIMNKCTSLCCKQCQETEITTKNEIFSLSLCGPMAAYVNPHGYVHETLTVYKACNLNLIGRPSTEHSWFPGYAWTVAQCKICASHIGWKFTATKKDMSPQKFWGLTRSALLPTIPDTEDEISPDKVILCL
T3 sequence (Q99873 whole entry): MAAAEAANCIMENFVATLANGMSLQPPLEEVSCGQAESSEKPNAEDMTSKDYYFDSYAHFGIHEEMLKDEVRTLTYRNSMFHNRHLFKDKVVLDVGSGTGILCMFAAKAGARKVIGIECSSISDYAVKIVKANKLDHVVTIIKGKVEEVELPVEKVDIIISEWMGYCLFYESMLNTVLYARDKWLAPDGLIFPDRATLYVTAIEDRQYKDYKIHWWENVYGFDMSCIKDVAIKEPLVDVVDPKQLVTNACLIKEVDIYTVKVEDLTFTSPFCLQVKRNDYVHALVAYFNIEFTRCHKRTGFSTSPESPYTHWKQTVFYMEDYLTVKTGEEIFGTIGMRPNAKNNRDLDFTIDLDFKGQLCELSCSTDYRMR
T1 sequence (Q96SW2 whole entry): as the sequence (Q96SW2 whole entry, the tested form may be a part) above
T1 sequence (Q16531 whole entry, further chain): as the sequence (Q16531 whole entry, the tested form may be a part) above
T4 sequence (Q96LA8 whole entry): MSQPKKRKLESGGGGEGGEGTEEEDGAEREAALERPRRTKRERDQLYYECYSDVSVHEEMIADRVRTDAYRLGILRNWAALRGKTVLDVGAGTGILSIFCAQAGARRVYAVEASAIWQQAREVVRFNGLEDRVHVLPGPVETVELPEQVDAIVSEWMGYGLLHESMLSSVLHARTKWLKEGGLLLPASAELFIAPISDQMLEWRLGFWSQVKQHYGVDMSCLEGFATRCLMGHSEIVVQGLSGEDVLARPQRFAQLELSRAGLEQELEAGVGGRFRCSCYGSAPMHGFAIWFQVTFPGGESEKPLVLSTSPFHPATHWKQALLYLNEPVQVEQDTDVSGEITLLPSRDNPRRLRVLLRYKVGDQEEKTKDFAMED

For the molecule `CNCCN(C)Cc1c[nH]nc1-c1ccc(OCCOCCN2C(=O)CCC(N3C(=O)c4cccc(O)c4C3=O)C2=O)cc1` (stereo not drawn) [compound 7], on CRBN, the CRBN binding entry was “does not bind CRBN”. Regarding `CNCCN(C)Cc1c[nH]nc1-c1ccc(OCCCCCCCCCCCC(=O)N[C@H](C(=O)N2C[C@H](O)C[C@H]2C(=O)NCc2ccc(-c3scnc3C)cc2)C(C)(C)C)cc1` [PROTAC E], the cytotoxicity entry in the data set with MCF-7 cell line and with KP-3 line was “cytotoxic” each time. For `CNCCN(C)Cc1c[nH]nc1-c1ccc(OCCOCCOCCOCCOCCOCCOc2cccc3c2C(=O)N(C2CCC(=O)NC2=O)C3=O)cc1` (stereo not drawn) [PROTAC L], the pIC50 – broadly, the negative decadic logarithm of the IC50, by convention in mol/L – at NLuc-CRBN fusion protein is < 5.00. In addition, the half-life in data set [1] was 0.9 h.

On to `CNCCN(C)Cc1c[nH]nc1-c1ccc(OCCCCCCCCCCCCCCCC(=O)N[C@H](C(=O)N2C[C@H](O)C[C@H]2C(=O)NCc2ccc(-c3scnc3C)cc2)C(C)(C)C)cc1` [PROTAC F], for which the cytotoxicity entry in the data set on MCF-7 cell line and with KP-3 line was “cytotoxic” throughout. Consider `CNCCN(C)Cc1c[nH]nc1-c1ccc(OCCCCCCCCCC(=O)N[C@H](C(=O)N2C[C@H](O)C[C@H]2C(=O)NCc2ccc(-c3scnc3C)cc2)C(C)(C)C)cc1` [PROTAC D], for which, at PRMT1 [2], the “change in monomethylation of arginine (MMA)” value is on record as “significant increase”. In the case of `CNCCN(C)Cc1c[nH]nc1-c1ccc(OCCOCCOCCOCCOCCOCCNc2cccc3c2C(=O)N(C2CCC(=O)NC2=O)C3=O)cc1` (stereo not drawn) [PROTAC M], the pIC50 at NLuc-CRBN fusion protein was 5.72. For the same molecule, the half-life in data set [1] was 2.1 h. In the case of `CNCCN(C)Cc1c[nH]nc1-c1ccc(OCCCCCCNc2cccc3c2C(=O)N(C2CCC(=O)NC2=O)C3=O)cc1` (stereo not drawn) [PROTAC N], the PRMT1 degradation result at PRMT1 [3] is given as “neither PRMT1 nor PRMT6 degradation was observed”. For the same molecule, the PRMT6 degradation result on PRMT6 is “neither PRMT1 nor PRMT6 degradation was observed”. Further, at PRMT1 [2] (ADMA/MMA Western blot), the “inhibition of PRMT1 activity” value is on record as “inhibited PRMT1 activity”. In addition, the negative logarithm of the IC50 (pIC50) at NLuc-CRBN fusion protein is 6.70. Take `CNCCN(C)Cc1c[nH]nc1-c1ccc(OCCCCCCCC(=O)N[C@H](C(=O)N2C[C@H](O)C[C@H]2C(=O)NCc2ccc(-c3scnc3C)cc2)C(C)(C)C)cc1` [PROTAC C]: the “change in monomethylation of arginine (MMA)” value on PRMT1 [2] was “significant increase”.
